Measurements published in patent US7704514B2 (priority 2003, dated 2010).
No end group written: not given here.

Key:
[1] = system: HCV-peptide specific IFN-γ production by CD4+ and CD8+ T cells; assay type: in vivo, HLA-A*0201 transgenic mice (HHD.1); settings: HHD.1 mice; co-injection of the five HCV-derived peptides (20 μg each) with KLK 10 nmol/o-d(IC)13 0.4 nmol s.c. days 0, 14, 28; day 35
Experimental: Experimental setup (5 mice/group): • 1. HCV peptides • 2. HCV peptides+KLK+o-d(IC)13
On days 0, 14 and 28 HHD.1 mice were injected s.c. into both hind footpads with a total volume of 100 μl/mouse (50 μl/footpad) containing the above listed compounds. At day 35 (7 days after last vaccination) CD4^+ as well as CD8^+ T cells were isolated by magnetic separation (MACS, Miltenyi) from single cell suspensions of spleen cells. T cells were incubated with medium (background control) or were restimulated with irradiated spleen cells from naïve HHD.1 mice as APC in the presence of either the different peptides used for vaccination or the irrelevant peptide p1274. After overnight incubation, the IFN-γ production was analyzed using an ELIspot assay.

[2] = system: peptide-specific IFN-γ producing cells; parameters: species or system C57B1/6 mice; settings: mouse, in vivo, sc
Staphylococcus aureus = settings: literature (Nakajima 1997; Cho 1999); cited from earlier work
human neutrophils = settings: cited from earlier work
[3] = system: HBsAg-specific IFN-γ and IL-4 production; assay type: in vivo, C57BL/6 mice; settings: C57BL/6, s.c. flank day 0 and 56; co-injected with HBsAg 5 μg/mouse; Alum, pR and KLK: after boost
Experimental: Experimental setup (5 mice/group/timepoint): • 1. HBsAg • 2. HBsAg+Alum • 3. HBsAg+I-ODN 2 • 4. HBsAg+I-ODN 2b • 5. HBsAg+o-d(IC)13 • 6. HBsAg+pR • 7. HBsAg+KLK • 8. HBsAg+pR+I-ODN 2 • 9. HBsAg+pR+I-ODN 2b • 10. HBsAg+pR+o-d(IC)13 • 11. HBsAg+KLK+I-ODN 2 • 12. HBsAg+KLK+I-ODN 2b • 13. HBsAg+KLK+o-d(IC)13
On day 0 and day 56 mice were injected subcutaneously into the right flank with a total volume of 100 μl/mouse containing the above mentioned compounds. The analysis of the immune response was performed at day 7, day 21 and day 50 after first and second injection, respectively. Spleen cells of five mice per group per time point were restimulated ex vivo with 10 μg/ml HBsAg and ELIspot assays were performed in order to analyse the HBsAg-specific IFN-γ (type 1 immune response) as well as IL-4 (type 2 immune response) production.

[4] = system: Influenza vaccine (Fluvirin)-specific IgG1 and IgG2b antibodies; parameters: species or system C57BL/6 mice; settings: mouse, in vivo, sc

For CINGVCWTV [p89], the “IFN-γ produced by CD4+ T cells against the peptide (ELIspot)” value (shortened to “IFN-γ produced by CD4+ T cells”) [1] was “high amounts” and the “IFN-γ production by CD8+ T cells against the peptide (ELIspot)” value [1] was “strong”.

For DLMGYIPAV [p87], the “IFN-γ produced by CD4+ T cells” value [1] was “high amounts” and the “IFN-γ production by CD8+ T cells against the peptide (ELIspot)” value [1] was “strong”.

With GYKVLVLNPSVAAT [p84] the “IFN-γ produced by CD4+ T cells” value [1] was “high amounts”.

With HMWNFISGIQYLAGLSTLPGNPA [p1426] the “IFN-γ produced by CD4+ T cells” value [1] was “high amounts”.

With IASNENMETM [p1574, reference compound] the “peptide-specific IFN-γ spots of spleen cells after restimulation with the respective peptide (ELIspot)” value (“peptide-specific IFN-γ spots” for short) [2] was “do not show any specific spots”.

For KLKLLLLLKLK-NH2, the “chemotherapeutic activity in Staphylococcus aureus-infected mice” value (Staphylococcus aureus) is given as “significant chemotherapeutic activity” and the “production of the superoxide anion (O2−) by human neutrophils via cell surface calreticulin” value (human neutrophils) is given as “activated to produce the superoxide anion”.

With KLKLLLLLKLK-OH the “HBsAg-specific IL-4 production (type 2 immune response) compared to injection of HBsAg alone, spleen cell ELIspot” value [3] was “Slightly increased”, the “Influenza vaccine-specific IgG1 (type 2 response), serum ELISA” value [4] was “induces the production of Influenza vaccine-specific IgG1” and the “Influenza vaccine-specific IgG2b (humoral type 1 response), serum ELISA” value [4] was “no specific IgG2b response is detectable”.

For “Poly-L-Arginine [pR, reference compound]”, the “HBsAg-specific IL-4 production (type 2 immune response) compared to injection of HBsAg alone, spleen cell ELIspot” value [3] was “Slightly increased” and the “Influenza vaccine-specific IgG2b (humoral type 1 response), serum ELISA” value [4] was “no specific IgG2b response is detectable”.

For SSIAAQDAL [p1600], the “peptide-specific IFN-γ spots” value [2] was “do not show any specific spots”.

With TMLYNKMEF [p1569] the “peptide-specific IFN-γ spots” value [2] was “specifically release IFN-γ”.

In the case of VTILNLALL [p1664], the “peptide-specific IFN-γ spots” value [2] is reported as “specifically release IFN-γ”.
